Measurements published in patent US20090191131A1, “USE OF PARTICULATE CONTRAST AGENTS IN DIAGNOSTIC IMAGING FOR STUDYING PHYSIOLOGICAL PARAMATERS” (priority 1998, published 2009).

Assays:
[1] = Temperature sensitivity of in vitro T1 relaxivity (r1), 0.47 T; type: physicochemical
From the text: FIG. 1 of the accompanying drawings and Table 5 below show the temperature sensitivity of in vitro T1 relaxivity (r1) for liposome encapsulated GdDTPA-BMA and GdHPDO3A, respectively (0.47T).

[2] = phosphatidylcholines; cited from earlier work
[3] = cited from earlier work

| SMILES | Transition temperature Tc [2] [°C] | also measured |
| --- | --- | --- |
| CC(O)CN1CCN(CC(=O)[O-])CCN(CC(=O)[O-])CCN(CC(=O)[O-])CC1.[Gd+3] (stereo not shown) [Control, GdHPDO3A] |  | r1 ([1]; 20 °C): 4.53 s⁻¹ mM⁻¹; r1 ([1]; 25 °C): 4.27 s⁻¹ mM⁻¹; r1 ([1]; 30 °C): 3.94 s⁻¹ mM⁻¹; r1 ([1]; 37 °C): 3.75 s⁻¹ mM⁻¹; r1 ([1]; 45 °C): 3.07 s⁻¹ mM⁻¹; r1 ([1]; 55 °C): 2.82 s⁻¹ mM⁻¹; r1 ([1]; 60 °C): 2.54 s⁻¹ mM⁻¹ |
| CCCCCCCCCCCCCCC(=O)OC[C@H](COP(=O)([O-])OCC[N+](C)(C)C)OC(=O)CCCCCCCCCCCCCC [PC 15:0] | 33 |  |
| CCCCCCCCCCCCCCCCCC(=O)OC[C@H](COP(=O)([O-])OCC[N+](C)(C)C)OC(=O)CCCCCCCCCCCCCCC [PC 18:0-16:0] | 44 |  |
| CCCCCCCCCCCCC(=O)OC[C@H](COP(=O)([O-])OCC[N+](C)(C)C)OC(=O)CCCCCCCCCCCC [PC 13:0] | 14 |  |
| CCCCCCCCCCCCCCCCCC(=O)O[C@H](COC(=O)CCCCCCCCCCCCCCC)COP(=O)([O-])OCC[N+](C)(C)C [PC 16:0-18:0] | 49 |  |
| CCCCCCCC/C=C\CCCCCCCC(=O)OC[C@H](COP(=O)([O-])OCC[N+](C)(C)C)OC(=O)CCCCCCC/C=C\CCCCCCCC [PC 18:1c9] | −20 |  |
| CCCCCCCCCCCCCCCCCCCCCCCC(=O)OC[C@H](COP(=O)([O-])OCC[N+](C)(C)C)OC(=O)CCCCCCCCCCCCCCCCCCCCCCC [PC 24:0] | 80 |  |
| CCCCCCCCCCCCCCCCCCCCCCC(=O)OC[C@H](COP(=O)([O-])OCC[N+](C)(C)C)OC(=O)CCCCCCCCCCCCCCCCCCCCCC [PC 23:0] | 79 |  |
| CCCCCCCCCCC/C=C\CCCCC(=O)OC[C@H](COP(=O)([O-])OCC[N+](C)(C)C)OC(=O)CCCC/C=C\CCCCCCCCCCC [PC 18:1c6] | 1 |  |
| CCCCCCCC/C=C/CCCCCCCC(=O)OC[C@H](COP(=O)([O-])OCC[N+](C)(C)C)OC(=O)CCCCCCC/C=C/CCCCCCCC [PC 18:1t9] | 12 |  |
| CCCCCCCCCCCCOC(=O)C(C)n1ccnc1 (stereo not shown) [DIP] |  | pKa [3]: 6.8; charged form ([3]; lysosomal pH (5.2)): over 97%; non-ionized (non/low surfactant activity) form ([3]; pH 7.3-7.4 (physiological)): 80% |
| CCCCCCCCCCCCCCCCCCCC(=O)OC[C@H](COP(=O)([O-])OCC[N+](C)(C)C)OC(=O)CCCCCCCCCCCCCCCCCCC [PC 20:0] | 66 |  |
| CCCCCCCCCCCCCCCCCC(=O)O[C@H](COC(=O)CCCCCCCCCCCCC)COP(=O)([O-])OCC[N+](C)(C)C [PC 14:0-18:0] | 40 |  |
| CCCCCCCCCCCCCCCCCCCCCC(=O)OCC(COP(=O)([O-])OCC[N+](C)(C)C)OC(=O)CCCCCCCCCCCCCCCCCCCCC (stereo not shown) [PC 22:0, Dibehenoyl-PC] | 75 |  |
| CCCCCCCCCCCCCCCC(=O)O[C@H](COC(=O)CCCCCCCCCCCCC)COP(=O)([O-])OCC[N+](C)(C)C [PC 14:0-16:0] | 35 |  |
| CCCCCCCCCCCCCCCCCCCCC(=O)OC[C@H](COP(=O)([O-])OCC[N+](C)(C)C)OC(=O)CCCCCCCCCCCCCCCCCCCC [PC 21:0] | 72 |  |
| CCCCCCCCCCCCCCCCC(=O)OC[C@H](COP(=O)([O-])OCC[N+](C)(C)C)OC(=O)CCCCCCCCCCCCCCCC [PC 17:0] | 48 |  |
